Results as given in patent US11254663B2 (BRISTOL-MYERS SQUIBB COMPANY, priority 2019, dated 2022).

biological target: FXR (Homo sapiens (Human), UniProt Q96RI1); test: transient human FXR/Gal4-luciferase reporter assay; assay type: cell-based; details: not given
Method in brief: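 HEK293 cells stably carrying a 5×Gal4 response element–firefly luciferase reporter were transiently transfected overnight with a Gal4 DBD–human FXR LBD fusion plasmid. Compound was added in DMSO and cells were incubated overnight at 37 °C, 5% CO2. Activity was read as Steady-Glo luminescence.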

Sequence of FXR (Q96RI1 262-486): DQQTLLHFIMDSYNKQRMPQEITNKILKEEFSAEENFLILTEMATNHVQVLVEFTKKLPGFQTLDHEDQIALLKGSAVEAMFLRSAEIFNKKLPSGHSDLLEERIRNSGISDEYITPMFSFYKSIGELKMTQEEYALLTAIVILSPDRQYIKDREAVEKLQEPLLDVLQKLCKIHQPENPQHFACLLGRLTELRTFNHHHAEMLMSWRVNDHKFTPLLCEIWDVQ

Compound	EC50
CCOc1ncc(-c2cccc(N(CC34CCC(c5nc(C(C)(C)C)no5)(CC3)CC4)C(=O)C34CC(NC(=O)OC(C)(C)C)(C3)C4)c2)cn1 [Example 505, tert-butyl (3-(((4-(3-(tert-butyl)-1,2,4-oxadiazol-5-yl)bicyclo[2.2.2]octan-1-yl)methyl) (3-(2-ethoxypyrimidin-5-yl)phenyl)carbamoyl)bicyclo[1.1.1]pentan-1-yl)carbamate]	621 nM
Cc1nc2ccc(-c3cccc(N(CC45CCC(c6nc(C7CC7)no6)(CC4)OC5)C(=O)C4CC(C(F)F)C4)c3)cc2s1 (stereo not drawn) [Example 566, N-((1-(3-cyclopropyl-1,2,4-oxadiazol-5-yl)-2-oxabicyclo[2.2.2]octan-4-yl)methyl)-3-(difluoromethyl)-N-(3-(2-methylbenzo[d]thiazol-6-yl)phenyl)cyclobutane-1-carboxamide]	922 nM
CCOc1ccc(-c2ccnc(N(CC34CCC(c5noc(C(C)(C)C)n5)(CC3)CC4)C(=O)C34CC(F)(C3)C4)c2)cn1 [Example 536, N-((4-(5-(tert-butyl)-1,2,4-oxadiazol-3-yl)bicyclo[2.2.2]octan-1-yl)methyl)-N-(6-ethoxy-[3,4′-bipyridin]-2′-yl)-3-fluorobicyclo[1.1.1]pentane-1-carboxamide]	29 nM
CC(C)(C)c1nc(C23CCC(CN(C(=O)C4CC(O)(C(F)(F)F)C4)c4cccc(-c5ccc(OC(F)F)cc5)c4)(CC2)CC3)no1 [Example 516, (1S,3S)—N-((4-(5-(tert-butyl)-1,2,4-oxadiazol-3-yl)bicyclo[2.2.2]octan-1-yl)methyl)-N-(4′-(difluoromethoxy)-[1,1′-biphenyl]-3-yl)-3-hydroxy-3-(trifluoromethyl)cyclobutane-1-carboxamide]	94 nM

same assay, conditions: Gal4-hFXR fusion construct, HEK293 reporter cells; response relative to 8 μM GW-4064

Compound	EC50
CCOc1ncc(-c2cccc(N(CC34CCC(c5ccc(C(F)(F)F)cn5)(CC3)CC4)C(=O)C34CC(F)(C3)C4)c2)cn1 [Example 487, N-(3-(2-ethoxypyrimidin-5-yl)phenyl)-3-fluoro-N-((4-(5-(trifluoromethyl)pyridin-2-yl)bicyclo[2.2.2]octan-1-yl)methyl)bicyclo[1.1.1]pentane-1-carboxamide]	418 nM
COc1ccc(-c2cccc(N(CC34CCC(c5nc(C6CC6)no5)(CC3)CC4)C(=O)C34CC(F)(C3)C4)c2)cc1OC [Example 301, N-((4-(3-cyclopropyl-1,2,4-oxadiazol-5-yl)bicyclo[2.2.2]octan-1-yl)methyl)-N-(3′,4′-dimethoxy-[1,1′-biphenyl]-3-yl)-3-fluorobicyclo[1.1.1]pentane-1-carboxamide]	519 nM
CC(C)(O)c1ccc(-c2cc(N(CC34CCC(c5noc(C(C)(C)F)n5)(CC3)CC4)C(=O)OC(C)(C)C(F)(F)F)ncc2F)cc1 [Example 620, 1,1,1-trifluoro-2-methylpropan-2-yl(5-fluoro-4-(4-(2-hydroxypropan-2-yl)phenyl)pyridin-2-yl)((4-(5-(2-fluoropropan-2-yl)-1,2,4-oxadiazol-3-yl)bicyclo[2.2.2]octan-1-yl)methyl) carbamate]	29 nM
N#Cc1ccc(-c2cccc(N(CC34CCC(c5nc(C6CC6)no5)(CC3)CC4)C(=O)C34CC(F)(C3)C4)c2)cc1 [Example 302, N-(4′-cyano-[1,1′-biphenyl]-3-yl)-N-((4-(3-cyclopropyl-1,2,4-oxadiazol-5-yl)bicyclo[2.2.2]octan-1-yl)methyl)-3-fluorobicyclo[1.1.1]pentane-1-carboxamide]	861 nM
CC(C)(O)c1ccc(-c2cccc(N(CC34CCC(c5noc(C(C)(F)F)n5)(CC3)CC4)C(=O)C34CC(C#N)(C3)C4)c2)cc1 [Example 585, 3-cyano-N-((4-(5-(1,1-difluoroethyl)-1,2,4-oxadiazol-3-yl)bicyclo[2.2.2]octan-1-yl)methyl)-N-(4′-(2-hydroxypropan-2-yl)-[1,1′-biphenyl]-3-yl)bicyclo[1.1.1]pentane-1-carboxamide]	18 nM
CO[C@H]1C[C@@H](C(=O)N(CC23CCC(c4noc(C(C)(C)C)n4)(CC2)CC3)c2cccc(-c3ccc(NS(C)(=O)=O)cc3)c2)C1 [Example 514, (1S,3S)—N-((4-(5-(tert-butyl)-1,2,4-oxadiazol-3-yl)bicyclo[2.2.2]octan-1-yl)methyl)-3-methoxy-N-(4′-(methylsulfonamido)-[1,1′-biphenyl]-3-yl)cyclobutane-1-carboxamide]	2260 nM
CCOc1ccc(-c2cccc(N(CC34CCC(c5nc(C6CC6)no5)(CC3)CC4)C(=O)C34CC(F)(C3)C4)c2)cn1 [Example 281, N-((4-(3-cyclopropyl-1,2,4-oxadiazol-5-yl)bicyclo[2.2.2]octan-1-yl)methyl)-N-(3-(6-ethoxypyridin-3-yl)phenyl)-3-fluorobicyclo[1.1.1]pentane-1-carboxamide]	66 nM
CCOc1ccc(-c2cccc(N(CC34CCC(c5nc(C(C)C)no5)(CC3)CC4)C(=O)C34CC(F)(C3)C4)c2)cc1 [Example 375, N-(4′-ethoxy-[1,1′-biphenyl]-3-yl)-3-fluoro-N-((4-(3-isopropyl-1,2,4-oxadiazol-5-yl)bicyclo[2.2.2]octan-1-yl)methyl)bicyclo[1.1.1]pentane-1-carboxamide]	61 nM
O=C(N(CC12CCC(c3nc(C4CC4)no3)(CC1)CC2)c1cccc(-c2ccc3nc(O)ccc3c2)c1)C12CC(F)(C1)C2 [Example 331, N-((4-(3-cyclopropyl-1,2,4-oxadiazol-5-yl)bicyclo[2.2.2]octan-1-yl)methyl)-3-fluoro-N-(3-(2-hydroxyquinolin-6-yl)phenyl)bicyclo[1.1.1]pentane-1-carboxamide]	231 nM
CC(C)(C)c1noc(C23CCC(CN(C(=O)C45CC(F)(C4)C5)c4cccc(-c5ncc(OC(F)F)cn5)c4)(CC2)CC3)n1 [Example 371, N-((4-(3-(tert-butyl)-1,2,4-oxadiazol-5-yl)bicyclo[2.2.2]octan-1-yl)methyl)-N-(3-(5-(difluoromethoxy)pyrimidin-2-yl)phenyl)-3-fluorobicyclo[1.1.1]pentane-1-carboxamide]	45 nM
COc1cc(-c2cccc(N(CC34CCC(c5nnc(C)s5)(CC3)CC4)C(=O)C34CC(F)(C3)C4)c2)ccn1 [Example 232, 3-Fluoro-N-(3-(2-methoxypyridin-4-yl)phenyl)-N-((4-(5-methyl-1,3,4-thiadiazol-2-yl)bicyclo[2.2.2]octan-1-yl)methyl)bicyclo[1.1.1]pentane-1-carboxamide]	465 nM
O=C(N(CC12CCC(c3nc(C4CC4)no3)(CC1)CC2)c1cccc(-c2ccc3[nH]c(=O)oc3c2)c1)C12CC(F)(C1)C2 [Example 261, N-((4-(3-cyclopropyl-1,2,4-oxadiazol-5-yl)bicyclo[2.2.2]octan-1-yl)methyl)-3-fluoro-N-(3-(2-oxo-2,3-dihydrobenzo[d]oxazol-6-yl)phenyl)bicyclo[1.1.1]pentane-1-carboxamide]	48 nM
COc1cc(-c2ccnc(N(CC34CCC(c5nc(C6CC6)no5)(CC3)CC4)C(=O)C34CC(F)(C3)C4)c2)ccn1 [Example 340, N-((4-(3-cyclopropyl-1,2,4-oxadiazol-5-yl)bicyclo[2.2.2]octan-1-yl)methyl)-3-fluoro-N-(2′-methoxy-[4,4′-bipyridin]-2-yl)bicyclo[1.1.1]pentane-1-carboxamide]	398 nM
Cc1nc2ccc(-c3cccc(N(CC45CCC(c6cnc(C(F)(F)F)nc6)(CC4)OC5)C(=O)C45CC(F)(C4)C5)c3)cc2s1 [Example 421, 3-fluoro-N-(3-(2-methylbenzo[d]thiazol-6-yl)phenyl)-N-((1-(2-(trifluoromethyl)pyrimidin-5-yl)-2-oxabicyclo[2.2.2]octan-4-yl)methyl)bicyclo[1.1.1]pentane-1-carboxamide]	2170 nM
COCc1ccc(-c2cccc(N(CC34CCC(c5nc(C6CC6)no5)(CC3)CC4)C(=O)C34CC(F)(C3)C4)c2)cc1 [Example 273, N-((4-(3-cyclopropyl-1,2,4-oxadiazol-5-yl)bicyclo[2.2.2]octan-1-yl)methyl)-3-fluoro-N-(4′-(methoxymethyl)-[1,1′-biphenyl]-3-yl)bicyclo[1.1.1]pentane-1-carboxamide]	52 nM
CC(C)Oc1ccc(-c2cccc(N(CC34CCC(c5noc(C(C)(C)F)n5)(CC3)CC4)C(=O)OC3(C(F)(F)F)COC3)c2)cc1 [Example 632, 3-(trifluoromethyl)oxetan-3-yl ((4-(5-(2-fluoropropan-2-yl)-1,2,4-oxadiazol-3-yl)bicyclo[2.2.2]octan-1-yl)methyl)(4′-isopropoxy-[1,1′-biphenyl]-3-yl)carbamate]	222 nM
O=C(N(CC12CCC(c3noc(C4(F)CC4)n3)(CC1)CC2)c1cccc(-c2cnc(C3CC3)nc2)c1)C12CC(F)(C1)C2 [Example 579, N-(3-(2-cyclopropylpyrimidin-5-yl)phenyl)-3-fluoro-N-((4-(5-(1-fluorocyclopropyl)-1,2,4-oxadiazol-3-yl)bicyclo[2.2.2]octan-1-yl)methyl)bicyclo[1.1.1]pentane-1-carboxamide]	45 nM
Cc1nc2ccc(-c3cccc(N(CC45CCC(c6cc(C7CC7)n(C)n6)(CC4)CC5)C(=O)C45CC(F)(C4)C5)c3)cc2s1 [Example 409, N-((4-(5-cyclopropyl-1-methyl-1H-pyrazol-3-yl)bicyclo[2.2.2]octan-1-yl)methyl)-3-fluoro-N-(3-(2-methylbenzo[d]thiazol-6-yl)phenyl)bicyclo[1.1.1]pentane-1-carboxamide]	73 nM
CC(F)(F)c1nc(C23CCC(CN(C(=O)C45CC(F)(C4)C5)c4ccc(F)c(N5CCC5)c4)(CC2)CC3)no1 [Example 575, N-(3-(azetidin-1-yl)-4-fluorophenyl)-N-((4-(5-(1,1-difluoroethyl)-1,2,4-oxadiazol-3-yl)bicyclo[2.2.2]octan-1-yl)methyl)-3-fluorobicyclo[1.1.1]pentane-1-carboxamide]	410 nM
CC(C)(C)c1nc(C23CCC(CN(C(=O)C45CC(F)(C4)C5)c4cccc(-c5ccc(C(F)(F)F)cc5)c4)(CC2)CC3)no1 [Example 445, N-((4-(5-(tert-butyl)-1,2,4-oxadiazol-3-yl)bicyclo[2.2.2]octan-1-yl)methyl)-3-fluoro-N-(4′-(trifluoromethyl)-[1,1′-biphenyl]-3-yl)bicyclo[1.1.1]pentane-1-carboxamide]	719 nM
